In US20200316092A1, “METHODS OF DIAGNOSIS AND TREATMENT OF LIVER DISEASES USING OBETICHOLIC ACID” (Intercept Pharmaceuticals, Inc., priority 2019, published 2020):
“Also recorded” adds a separate entry of the source.

Assays:
Assay type in all cases: in vivo, human
[1] = system: subjects with nonalcoholic steatohepatitis with fibrosis; test: Phase 1 study: liver chemistries (ALT, AST, GGT, bilirubin, ALP); details: Day 85 compared to baseline
Description: (§1) The secondary objectives of this study are to evaluate the pharmacodynamics of OCA on FXR activation and to evaluate liver chemistries and the pharmacodynamics of OCA on biomarkers of NASH, including inflammation, apoptosis, and oxidation stress.

[2] = Phase 1 study: liver exposure of OCA and its conjugates
[3] = system: subjects with nonalcoholic steatohepatitis with fibrosis; test: Phase 1 placebo-controlled study: safety and tolerability (TEAE incidence); details: for Total Number of TEAEs: 85 days; for Total Number of TEAEs / Any Serious TEAE / Constipation (TEAE incidence) / Diabetes mellitus (TEAE) / Fatigue (TEAE incidence) / Headache (TEAE incidence) / Hepatobiliary disorders (SOC) (TEAE) / Hypercholesterolemia (TEAE) / LDL Increased, Mild (maximum severity) / LDL Increased, Moderate (maximum severity) / LDL Increased, Severe (maximum severity) / Low density lipoprotein increased (TEAE incidence) / Nausea (TEAE incidence) / Pneumonia (TEAE incidence) / Pruritis (TEAE incidence) / Pruritus, Mild (maximum severity) / Pruritus, Moderate (maximum severity) / Pruritus, Severe (maximum severity) / Subjects with at least one TEAE: n = 20
Description: Example 1: A Phase 1, Double-Blind, Randomized, Placebo-Controlled Study to Evaluate Safety, Pharmacokinetics, and Pharmacodynamics of Obeticholic Acid in Subjects with Nonalcoholic Steatohepatitis with Fibrosis
(§2) The primary objectives of this study are to evaluate the safety and tolerability of OCA treatment in subjects with NASH with fibrosis and to evaluate single- and multiple-dose pharmacokinetics of OCA, its conjugates, and metabolites in subjects with NASH with fibrosis.
The study comprised three treatment groups-10 mg QD, 25 mg QD and Placebo QD.

[4] = system: liver function of NASH subjects; test: HepQuant-SHUNT test: disease severity index (DSI) score
Description: The HepQuant®-SHUNT test uses simultaneous orally administered d4-cholate and intravenously administered 13C-cholate (i.e. intravenous (24-^13C cholate) and oral (2,2,4,4-^2H cholate) together with mass spectrometry analysis of five serum samples from the subject to accurately measure liver function and generate a disease severity index (DSI) score. HepQuant®-STAT is a simpler test that uses only orally administered d4-cholate and a single serum sample from the subject to estimate liver function (STAT).
Briefly, the HepQuant®-SHUNT test allows for simultaneous measurement of the perfusion/uptake from portal circulation and perfusion/uptake from systemic circulation, as shown in FIGS. 1 and 2. In a HepQuant®-SHUNT test, a subject is orally administered 40 mg of d4-cholate and intravenously administered 20 mg of 13C-cholate. Blood samples are then isolated from the subject at 5, 20, 45, 60 and 90 minutes after cholate administration. For each sample, mass spectrometry is used to determine the Portal Hepatic Filtration Rate (Portal HFR) and Systemic Hepatic Filtration Rate (Systemic HFR). The Portal HFR is defined as the clearance of 4D-cholate (dose AUC^−1 kg body weight^−1, typically mL mini kg^−1) and the Systemic HFR is defined as the clearance of 13C-cholate (dose AUC^−1 kg body weight^−1, typically mL min^−1 kg^−1). The Portal HFR and Systemic HFR can then be used to calculate a Disease Severity Index (DSI) score. The DSI can be used to determine the extent of liver function, and therefore the extent of liver damage/disease in the subject. Thus, the DSI score can be used to diagnose a subject with a disease. For example, a DSI greater than 16.5 can indicate that the subject will likely have biopsy-proven NASH. A DSI score can also be used to determine the percent likelihood of endoscopic finding of varices in subjects with NASH or hepatitis C virus infection, as shown in FIG. 3. DSI scores can also be measured multiple times during a course of treatment described herein (a treatment regimen) to determine the efficacy of the course of treatment. For example, a baseline DSI score can be measured by performing a HepQuant®-SHUNT test prior to the start of the treatment regimen (i.e. prior to the first administration of the treatment regimen) and then a second DSI score can be measured at a time point during the treatment regimen. The first and second DSI scores can compared to determine a DSI difference score. For example, a reduction in DSI score from the baseline measurement can indicate that the course of treatment is beneficial as the subject's liver function is improving. Depending on the DSI difference score, the treatment regimen can be adjusted, continued or discontinued.
In some aspects, a DSI difference score that is greater than or equal to 2 (i.e. a decrease in the DSI scores of 2 or more over the course of treatment) is considered to be clinically meaningful, based on reducing the probability of any varices from approximately 30% to 20% for subjects with a baseline DSI of 20.
As part of the HepQuant®-SHUNT test, labeled cholate was administered intravenously and orally. The HepQuant®-SHUNT tests were used to determine disease severity index (DSI) scores.

[5] = system: FXR activation; test: Phase 1 study: pharmacodynamic markers of FXR activation (C4, bile acids, FGF-19); details: Day 85 compared to baseline
Description: as §1
Furthermore, plasma bile acids were suppressed by administration of OCA, but no dose response was observed.

[6] = Phase 1 study: plasma pharmacokinetics of total OCA; details: 10 mg QD or 25 mg QD
Description: as §2
Furthermore, although there were a limited number of subjects having a fibrosis score of F4, plasma exposure was lower in these subjects as compared to the subjects with a fibrosis score of F1 or F2/F3.

plasma exposure of OCA, NASH subjects vs healthy subjects ([6]; day 1 and day 85): modestly higher in NASH subjects
plasma exposure in F4 subjects compared to F1 or F2/F3 ([6]; limited number of F4 subjects): lower
SMILES: CC[C@H]1[C@@H](O)[C@@H]2[C@H](CC[C@]3(C)[C@@H]([C@H](C)CCC(=O)O)CC[C@@H]23)[C@@]2(C)CC[C@@H](O)C[C@@H]12 [OCA, 3α,7α-dihydroxy-6α-ethyl-5β-cholan-24-oic acid]
ALP levels, change from baseline [1]: dose dependent increase
biochemistry markers of hepatic cytotoxicity and dysfunction (ALT, AST, GGT, total bilirubin, direct bilirubin) ([1]; no dose-dependent response): suppressed
liver exposure of OCA across fibrosis scores ([2]; 10 mg QD, F1 or F2/F3): generally similar across subjects with different fibrosis scores
liver exposure of OCA across fibrosis scores ([2]; 25 mg QD, F1, F2/F3 or F4): generally similar across subjects with different fibrosis scores
liver exposure of OCA across fibrosis scores after normalization by dose ([2]; F1, F2/F3 or F4): generally similar across subjects with different fibrosis scores
TEAEs leading to study discontinuation ([3]; 10 mg QD and 25 mg QD for 12 weeks): no TEAEs leading to study discontinuation
safety and tolerability ([3]; 10 mg QD and 25 mg QD for 12 weeks, NASH subjects with fibrosis): generally safe and well tolerated
Total Number of TEAEs ([3]; OCA 10 mg QD): 29
Any Serious TEAE ([3]; OCA 10 mg QD): 0 n (%)
Constipation (TEAE incidence) ([3]; OCA 10 mg QD): 2 (10%) n (%)
Diabetes mellitus (TEAE) ([3]; OCA 10 mg QD): 1 (5%) n (%)
Fatigue (TEAE incidence) ([3]; OCA 10 mg QD): 2 (10%) n (%)
Headache (TEAE incidence) ([3]; OCA 10 mg QD): 0 n (%)
Hepatobiliary disorders (SOC) (TEAE) ([3]; OCA 10 mg QD): 0 n (%)
Hypercholesterolemia (TEAE) ([3]; OCA 10 mg QD): 0 n (%)
LDL Increased, Mild (maximum severity) ([3]; OCA 10 mg QD): 2 (10%) n (%)
LDL Increased, Moderate (maximum severity) ([3]; OCA 10 mg QD): 0 n (%)
LDL Increased, Severe (maximum severity) ([3]; OCA 10 mg QD): 0 n (%)
Low density lipoprotein increased (TEAE incidence) ([3]; OCA 10 mg QD): 2 (10%) n (%)
Nausea (TEAE incidence) ([3]; OCA 10 mg QD): 0 n (%)
Pneumonia (TEAE incidence) ([3]; OCA 10 mg QD): 0 n (%)
Pruritis (TEAE incidence) ([3]; OCA 10 mg QD): 3 (15%) n (%)
Pruritus, Mild (maximum severity) ([3]; OCA 10 mg QD): 3 (15%) n (%)
Pruritus, Moderate (maximum severity) ([3]; OCA 10 mg QD): 0 n (%)
Pruritus, Severe (maximum severity) ([3]; OCA 10 mg QD): 0 n (%)
Subjects with at least one TEAE ([3]; OCA 10 mg QD): 12 (60%) n (%)
Total Number of TEAEs ([3]; OCA 25 mg QD): 36
Any Serious TEAE ([3]; OCA 25 mg QD): 0 n (%)
Constipation (TEAE incidence) ([3]; OCA 25 mg QD): 2 (10%) n (%)
Diabetes mellitus (TEAE) ([3]; OCA 25 mg QD): 0 n (%)
Fatigue (TEAE incidence) ([3]; OCA 25 mg QD): 3 (15%) n (%)
Headache (TEAE incidence) ([3]; OCA 25 mg QD): 0 n (%)
Hepatobiliary disorders (SOC) (TEAE) ([3]; OCA 25 mg QD): 0 n (%)
Hypercholesterolemia (TEAE) ([3]; OCA 25 mg QD): 1 (5%) n (%)
LDL Increased, Mild (maximum severity) ([3]; OCA 25 mg QD): 1 (5%) n (%)
LDL Increased, Moderate (maximum severity) ([3]; OCA 25 mg QD): 1 (5%) n (%)
LDL Increased, Severe (maximum severity) ([3]; OCA 25 mg QD): 0 n (%)
Low density lipoprotein increased (TEAE incidence) ([3]; OCA 25 mg QD): 2 (10%) n (%)
Nausea (TEAE incidence) ([3]; OCA 25 mg QD): 0 n (%)
Pneumonia (TEAE incidence) ([3]; OCA 25 mg QD): 2 (10%) n (%)
Pruritis (TEAE incidence) ([3]; OCA 25 mg QD): 5 (25%) n (%)
Pruritus, Mild (maximum severity) ([3]; OCA 25 mg QD): 2 (10%) n (%)
Pruritus, Moderate (maximum severity) ([3]; OCA 25 mg QD): 3 (15%) n (%)
Pruritus, Severe (maximum severity) ([3]; OCA 25 mg QD): 0 n (%)
Subjects with at least one TEAE ([3]; OCA 25 mg QD): 15 (75%) n (%)
LDL cholesterol ([3]; OCA treatment groups (10 mg QD, 25 mg QD)): increase in LDL cholesterol
reduction in DSI ([4]; 10 mg QD or 25 mg QD, Day 85, greater response at 25 mg QD): dose-dependent and clinically meaningful reduction; also recorded: dose-dependent response
subjects treated with OCA among the 18 subjects with clinically relevant ΔDSI of at least −2 ([4]; F1, F2/F3 or F4, 10 mg QD or 25 mg QD, Day 85): 17 subjects
Responders (≥2 point decrease in DSI), % ([4]; F1, OCA 10 mg QD, Day 85, n = 3): (67) %
Responders (≥2 point decrease in DSI), % ([4]; F1, OCA 25 mg QD, Day 85, n = 5): (20) %
change in DSI score (Day 85−Baseline) vs placebo ([4]; F2/F3 NASH subjects, greatest effect at 25 mg QD): greater improvement in DSI score
Responders (≥2 point decrease in DSI), % ([4]; F4, OCA 10 mg QD, Day 85, n = 2): (50) %
Responders (≥2 point decrease in DSI), % ([4]; F4, OCA 25 mg QD, Day 85, n = 1): (100) %
FGF-19 levels, percent change from baseline [5]: increased with OCA dose
C4 levels, percent change from baseline ([5]; no dose response): suppressed
plasma bile acids, percent change from baseline ([5]; no dose response): suppressed
